Measurements published in ChEMBL document CHEMBL1156722, “A novel 5-[1,3,4-oxadiazol-2-yl]-N-aryl-4,6-pyrimidine diamine having dual EGFR/HER2 kinase activity: design, synthesis, and biological activity” (Bioorg Med Chem Lett, 2008).

Columns and labels:
[1] = target: Receptor tyrosine-protein kinase erbB-2 (Homo sapiens, UniProt P04626); experiment: Inhibition of HER2
[2] = target: T1, Aurora kinase A (Homo sapiens, UniProt O14965); experiment: Inhibition of Aurora A
T1 sequence (O14965 whole entry): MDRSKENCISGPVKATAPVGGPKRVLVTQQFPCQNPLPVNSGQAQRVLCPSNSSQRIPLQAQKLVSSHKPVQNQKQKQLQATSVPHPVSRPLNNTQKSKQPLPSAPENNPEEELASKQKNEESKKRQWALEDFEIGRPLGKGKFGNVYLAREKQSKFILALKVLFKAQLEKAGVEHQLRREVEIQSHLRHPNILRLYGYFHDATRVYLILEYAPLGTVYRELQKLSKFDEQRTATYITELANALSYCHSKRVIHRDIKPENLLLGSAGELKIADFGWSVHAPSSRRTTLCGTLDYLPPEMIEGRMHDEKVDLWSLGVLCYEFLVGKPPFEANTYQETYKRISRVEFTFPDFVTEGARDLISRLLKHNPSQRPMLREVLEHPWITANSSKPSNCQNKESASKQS

[3] = target: T2, Cyclin-dependent kinase 1 (Homo sapiens, UniProt P06493); experiment: Inhibition of CDK1
Target sequence in this assay (P06493 whole entry): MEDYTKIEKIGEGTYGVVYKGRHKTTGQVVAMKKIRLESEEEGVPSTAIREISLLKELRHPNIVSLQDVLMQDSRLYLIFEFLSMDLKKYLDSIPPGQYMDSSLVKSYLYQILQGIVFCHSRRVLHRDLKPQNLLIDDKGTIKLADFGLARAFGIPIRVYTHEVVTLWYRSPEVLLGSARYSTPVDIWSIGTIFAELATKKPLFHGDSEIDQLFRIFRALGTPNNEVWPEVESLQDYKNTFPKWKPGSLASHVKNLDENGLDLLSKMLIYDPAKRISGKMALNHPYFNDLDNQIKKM

[4] = target: T3, Vascular endothelial growth factor receptor 2 (Homo sapiens, UniProt P35968); experiment: Inhibition of VEGFR2
[5] = target: T4, Aurora kinase A (Homo sapiens) (UniProt O14965); experiment: Inhibition of Aurora A at 100 uM
T4 sequence (whole entry): T1 sequence (O14965 whole entry)

[6] = target: T2, Cyclin-dependent kinase 1; experiment: Inhibition of CDK1 at 100 uM
Target sequence in this assay (P06493 whole entry, looked up): as the sequence (P06493 whole entry) above

[7] = target: T3, Vascular endothelial growth factor receptor 2; experiment: Inhibition of VEGFR2 at 100 uM
[8] = target: Epidermal growth factor receptor (Homo sapiens, UniProt P00533)
[9] = test system: NCI-N87; experiment: Cytotoxicity against human HER2-dependent N87 cells; assay type: functional, cell-based
[10] = test system: BT-474; experiment: Cytotoxicity against human HER2-dependent BT474 cells; assay type: functional, cell-based
[11] = test system: SK-BR-3; experiment: Cytotoxicity against human HER2-dependent SKBR3 cells; assay type: functional, cell-based
[12] = test system: HeLa; experiment: Cytotoxicity against human non-HER2-dependent HeLa cells; assay type: functional, cell-based

Chain of Receptor tyrosine-protein kinase erbB-2 (P04626 whole entry): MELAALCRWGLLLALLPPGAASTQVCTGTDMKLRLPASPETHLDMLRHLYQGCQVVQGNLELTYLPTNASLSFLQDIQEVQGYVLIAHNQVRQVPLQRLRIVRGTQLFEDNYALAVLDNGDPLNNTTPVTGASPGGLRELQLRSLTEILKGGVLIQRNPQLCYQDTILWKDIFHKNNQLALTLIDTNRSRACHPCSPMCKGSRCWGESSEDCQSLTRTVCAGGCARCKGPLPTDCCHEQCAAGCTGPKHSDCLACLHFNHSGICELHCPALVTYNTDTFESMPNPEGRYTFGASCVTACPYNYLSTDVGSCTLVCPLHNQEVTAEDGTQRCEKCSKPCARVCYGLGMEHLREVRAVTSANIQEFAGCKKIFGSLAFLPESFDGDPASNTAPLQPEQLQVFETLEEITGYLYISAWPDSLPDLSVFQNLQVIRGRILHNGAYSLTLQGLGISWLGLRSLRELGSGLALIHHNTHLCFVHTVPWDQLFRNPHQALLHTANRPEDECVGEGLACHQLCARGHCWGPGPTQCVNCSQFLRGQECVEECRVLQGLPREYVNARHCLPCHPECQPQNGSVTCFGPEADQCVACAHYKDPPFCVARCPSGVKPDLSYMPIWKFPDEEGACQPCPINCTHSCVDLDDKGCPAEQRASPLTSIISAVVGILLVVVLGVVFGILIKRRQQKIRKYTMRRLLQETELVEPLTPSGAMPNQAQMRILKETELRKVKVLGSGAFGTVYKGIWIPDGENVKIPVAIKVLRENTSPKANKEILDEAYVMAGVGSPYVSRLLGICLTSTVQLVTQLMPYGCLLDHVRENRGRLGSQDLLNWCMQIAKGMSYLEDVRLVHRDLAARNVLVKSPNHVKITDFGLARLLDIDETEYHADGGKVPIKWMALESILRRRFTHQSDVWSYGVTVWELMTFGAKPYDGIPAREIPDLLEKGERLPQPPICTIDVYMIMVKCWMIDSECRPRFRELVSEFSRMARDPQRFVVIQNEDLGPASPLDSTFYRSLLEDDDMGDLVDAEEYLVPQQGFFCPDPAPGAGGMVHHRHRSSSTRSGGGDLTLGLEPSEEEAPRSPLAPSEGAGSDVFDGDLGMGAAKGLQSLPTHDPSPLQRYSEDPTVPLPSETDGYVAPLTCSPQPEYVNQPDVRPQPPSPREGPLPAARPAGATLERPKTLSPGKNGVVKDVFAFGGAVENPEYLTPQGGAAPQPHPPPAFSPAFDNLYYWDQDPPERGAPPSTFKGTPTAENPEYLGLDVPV
T3 sequence (P35968 whole entry): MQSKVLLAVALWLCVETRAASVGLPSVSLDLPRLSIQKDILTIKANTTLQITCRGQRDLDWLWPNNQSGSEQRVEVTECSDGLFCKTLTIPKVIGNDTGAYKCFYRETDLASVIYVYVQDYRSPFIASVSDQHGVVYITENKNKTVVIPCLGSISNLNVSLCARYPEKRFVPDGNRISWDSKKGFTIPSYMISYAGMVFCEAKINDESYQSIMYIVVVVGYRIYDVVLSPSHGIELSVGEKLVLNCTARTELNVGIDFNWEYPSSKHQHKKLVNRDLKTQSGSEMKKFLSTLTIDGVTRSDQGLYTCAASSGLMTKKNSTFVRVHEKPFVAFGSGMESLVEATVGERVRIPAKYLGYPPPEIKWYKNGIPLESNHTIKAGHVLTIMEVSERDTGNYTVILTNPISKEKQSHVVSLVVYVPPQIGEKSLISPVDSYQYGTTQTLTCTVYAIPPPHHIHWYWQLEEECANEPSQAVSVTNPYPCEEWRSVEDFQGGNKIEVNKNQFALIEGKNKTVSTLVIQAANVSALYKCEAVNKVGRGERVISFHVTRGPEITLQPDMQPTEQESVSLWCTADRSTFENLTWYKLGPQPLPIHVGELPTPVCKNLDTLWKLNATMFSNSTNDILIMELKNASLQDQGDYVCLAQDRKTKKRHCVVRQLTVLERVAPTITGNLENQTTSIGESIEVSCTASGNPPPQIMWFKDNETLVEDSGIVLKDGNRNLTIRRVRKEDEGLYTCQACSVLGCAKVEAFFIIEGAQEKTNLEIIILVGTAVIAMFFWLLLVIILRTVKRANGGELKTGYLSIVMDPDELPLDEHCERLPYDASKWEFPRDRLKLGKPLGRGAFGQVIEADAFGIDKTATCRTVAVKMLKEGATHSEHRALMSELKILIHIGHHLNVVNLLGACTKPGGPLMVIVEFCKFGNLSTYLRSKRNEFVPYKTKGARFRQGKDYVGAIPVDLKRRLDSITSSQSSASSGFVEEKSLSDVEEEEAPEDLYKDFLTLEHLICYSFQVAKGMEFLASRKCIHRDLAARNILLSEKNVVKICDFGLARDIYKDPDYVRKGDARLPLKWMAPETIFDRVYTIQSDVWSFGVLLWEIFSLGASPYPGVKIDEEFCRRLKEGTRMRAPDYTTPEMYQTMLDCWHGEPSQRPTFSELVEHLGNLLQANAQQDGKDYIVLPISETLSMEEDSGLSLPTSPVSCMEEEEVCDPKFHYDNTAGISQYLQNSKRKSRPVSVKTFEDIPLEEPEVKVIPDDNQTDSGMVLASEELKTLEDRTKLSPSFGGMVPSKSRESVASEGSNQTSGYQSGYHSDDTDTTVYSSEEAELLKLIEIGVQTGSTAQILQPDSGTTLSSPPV
Chain of Epidermal growth factor receptor (P00533 whole entry): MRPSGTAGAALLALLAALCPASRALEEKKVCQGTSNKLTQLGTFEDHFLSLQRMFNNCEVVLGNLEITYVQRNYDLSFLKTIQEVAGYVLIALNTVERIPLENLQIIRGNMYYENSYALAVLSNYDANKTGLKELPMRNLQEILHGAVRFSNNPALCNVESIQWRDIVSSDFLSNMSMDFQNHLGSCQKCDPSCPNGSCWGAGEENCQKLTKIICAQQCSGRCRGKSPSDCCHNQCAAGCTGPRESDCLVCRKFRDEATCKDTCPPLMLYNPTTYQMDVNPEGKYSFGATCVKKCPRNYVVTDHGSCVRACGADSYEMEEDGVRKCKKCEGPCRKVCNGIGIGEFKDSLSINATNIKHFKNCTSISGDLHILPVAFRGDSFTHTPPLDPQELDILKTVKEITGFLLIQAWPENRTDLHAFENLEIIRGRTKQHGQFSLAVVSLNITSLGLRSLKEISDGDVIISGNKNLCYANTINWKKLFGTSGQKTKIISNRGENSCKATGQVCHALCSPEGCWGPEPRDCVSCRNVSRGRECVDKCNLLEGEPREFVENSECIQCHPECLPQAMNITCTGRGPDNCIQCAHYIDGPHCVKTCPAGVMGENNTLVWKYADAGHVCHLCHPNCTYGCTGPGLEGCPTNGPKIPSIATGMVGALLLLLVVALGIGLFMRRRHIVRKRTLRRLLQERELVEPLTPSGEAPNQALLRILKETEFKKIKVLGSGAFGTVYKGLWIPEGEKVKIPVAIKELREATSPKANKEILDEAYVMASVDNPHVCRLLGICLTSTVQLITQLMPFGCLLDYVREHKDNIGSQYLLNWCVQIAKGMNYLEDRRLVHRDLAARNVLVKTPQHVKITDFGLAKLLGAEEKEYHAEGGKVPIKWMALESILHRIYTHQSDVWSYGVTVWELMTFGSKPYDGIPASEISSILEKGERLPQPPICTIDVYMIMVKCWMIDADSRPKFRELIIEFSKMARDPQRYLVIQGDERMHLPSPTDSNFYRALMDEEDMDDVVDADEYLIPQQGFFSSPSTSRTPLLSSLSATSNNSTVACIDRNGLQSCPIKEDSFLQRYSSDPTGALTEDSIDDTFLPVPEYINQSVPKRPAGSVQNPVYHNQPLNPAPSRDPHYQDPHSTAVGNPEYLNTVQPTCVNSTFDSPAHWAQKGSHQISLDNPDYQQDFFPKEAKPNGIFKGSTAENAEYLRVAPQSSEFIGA

For Nc1ncnc(Nc2ccc(OCc3ccccc3)c(Cl)c2)c1C(=O)NCCN1CCOCC1, the IC50 [1] was 10 µM, the IC50 [2] was > 100 µM and the IC50 [3] was > 100 µM. The IC50 [4] was > 100 µM.
For CCN(CC)C(=O)c1c(N)ncnc1Nc1ccc(OCc2ccccc2)c(Cl)c1, the IC50 [1] was > 100 µM, the IC50 [2] was > 100 µM and the IC50 [3] was > 100 µM. For the same compound, the IC50 [4] was > 100 µM.
For NNC(=O)c1c(N)ncnc1Nc1ccc(OCc2ccccc2)c(Cl)c1, the IC50 [1] was 0.146 µM, the IC50 [2] was > 10 µM and the IC50 [3] was > 100 µM. The IC50 [4] was > 10 µM.
In the case of Nc1ncnc(Nc2ccc(OCc3ccccc3)c(Cl)c2)c1C=O, the inhibition [5] is reported as 30%, the inhibition [6] is reported as < 10% and the inhibition [7] is reported as < 10%.
With Nc1ncnc(Nc2ccc(OCc3ccccc3)c(Cl)c2)c1C(=O)NNC(=O)CCN1CCOCC1 the IC50 [2] was > 100 µM, the IC50 [3] was > 100 µM and the IC50 [4] was > 100 µM.
COc1ccc(CCNC(=O)c2c(N)ncnc2Nc2ccc(OCc3ccccc3)c(Cl)c2)cc1 was tested, and the IC50 [1] was > 100 µM, the IC50 [2] was > 100 µM and the IC50 [3] was > 100 µM. The IC50 [4] was > 100 µM.
COC(=O)c1c(N)ncnc1Nc1ccc(OCc2ccccc2)c(Cl)c1 was tested, and the IC50 [1] was 0.1 µM and the inhibition [5] was 50%.
In the case of Nc1ncnc(Nc2ccc(OCc3ccccc3)c(Cl)c2)c1C(=O)OCCN1CCOCC1, the IC50 [1] is reported as 1.53 µM, the inhibition [5] is reported as 55% and the inhibition [6] is reported as < 10%. It also gave an inhibition [7] of 11%.
In the case of N#Cc1c(N)ncnc1Nc1ccc(OCc2ccccc2)c(Cl)c1, the IC50 [1] is reported as 0.47 µM, the inhibition [5] is reported as 33% and the inhibition [6] is reported as < 10%. For the same compound, the inhibition [7] was 37% and the IC50 [8] was 0.027 µM.
For COCCNC(=O)c1c(N)ncnc1Nc1ccc(OCc2ccccc2)c(Cl)c1, the IC50 [1] was > 100 µM, the IC50 [2] was > 100 µM and the IC50 [3] was > 100 µM. For the same compound, the IC50 [4] was > 100 µM.
COc1ccc(NC(=O)c2c(N)ncnc2Nc2ccc(OCc3ccccc3)c(Cl)c2)cc1 was tested, and the IC50 [1] was > 100 µM, the IC50 [2] was > 10 µM and the IC50 [3] was > 100 µM. For the same compound, the IC50 [4] was > 100 µM.
Nc1ncnc(Nc2ccc(OCc3ccccc3)c(Cl)c2)c1C(=O)NCCN1CCCCC1 was tested, and the IC50 [2] was 100 µM, the IC50 [3] was > 100 µM and the IC50 [4] was > 100 µM.
In the case of Nc1ncnc(Nc2ccc(OCc3ccccc3)c(Cl)c2)c1-c1nnc(CCN2CCOCC2)o1, the IC50 [1] is reported as 0.08 µM, the IC50 [2] is reported as > 100 µM and the IC50 [3] is reported as > 100 µM. For the same compound, the IC50 [4] was > 100 µM, the IC50 [9] was 0.411 µM and the IC50 [10] was 0.312 µM. The IC50 [11] was 0.325 µM, the IC50 [12] was > 100 µM and the IC50 [8] was 0.03 µM.
With Nc1ncnc(Nc2ccc(OCc3ccccc3)c(Cl)c2)c1C(=O)OCc1cccc(F)c1 the IC50 [1] was > 100 µM, the IC50 [2] was > 100 µM and the IC50 [3] was > 100 µM. For the same compound, the IC50 [4] was > 100 µM.
Nc1ncnc(Nc2ccc(OCc3ccccc3)c(Cl)c2)c1C(=O)Nc1ccccc1 was tested, and the IC50 [1] was > 100 µM, the IC50 [2] was > 100 µM and the IC50 [3] was > 100 µM. The IC50 [4] was > 100 µM and the IC50 [8] was 0.076 µM.
For Nc1ncnc(Nc2ccc(OCc3ccccc3)c(Cl)c2)c1C(=O)O, the inhibition [5] was 73%, the inhibition [6] was < 10% and the inhibition [7] was 30%.
